ChEMBL document CHEMBL4311936, “Synthesis and structure-activity relationship studies of IgG-binding peptides focused on the C-terminal histidine residue” (Medchemcomm, 2019)
Bridge positions count the residues as written; N and C are the ends. Peptide text beside a SMILES is read from it.

Experiments:
Homo sapiens = species: Homo sapiens; assay: Binding affinity to IgG (unknown origin) assessed as association rate constant
[1] = Binding affinity to IgG (unknown origin) assessed as dissociation constant; parameters: species or system Homo sapiens

| SMILES | Ka (Homo sapiens) [M⁻¹ s⁻¹] | Kd [1] [nM] |
| --- | --- | --- |
| CC(=O)N[C@@H](CC(=O)O)C(=O)N[C@H]1CSSC[C@@H](C(=O)N[C@H](C(=O)N[C@@H](Cc2ccccc2)C(=O)N[C@@H](Cc2cnc[nH]2)C(N)=O)[C@@H](C)O)NC(=O)[C@H](Cc2c[nH]c3ccccc23)NC(=O)[C@H](C(C)C)NC(=O)[C@H](CC(C)C)NC(=O)[C@H](CCC(=O)O)NC(=O)CNC(=O)[C@H](CCCCN)NC(=O)[C@H](Cc2cnc[nH]2)NC(=O)[C@H](Cc2ccc(O)cc2)NC(=O)[C@H](C)NC1=O (Ac-DCAYHKGELVWCTFH-NH2; disulfide 2-12) | 741000 | – |
| CC(C)C[C@@H]1NC(=O)[C@H](Cc2cnc[nH]2)NC(=O)[C@H](Cc2c[nH]c3ccccc23)NC(=O)[C@H](C)NC(=O)[C@@H]2CSSC[C@H](NC(=O)[C@H](Cc3c[nH]c4ccccc34)NC(=O)[C@H](C(C)C)NC(=O)[C@H](CC(C)C)NC(=O)[C@H](CCC(=O)O)NC(=O)CNC1=O)C(=O)N[C@@H]([C@@H](C)O)C(=O)N[C@H](C(=O)O)CSSC[C@H](N)C(=O)N[C@@H](CC(=O)O)C(=O)N2 | – | 2.45 |
| CC(C)C[C@@H]1NC(=O)[C@H](Cc2cnc[nH]2)NC(=O)[C@H](Cc2c[nH]c3ccccc23)NC(=O)[C@H](C)NC(=O)[C@@H](NC(=O)[C@H](CC(=O)O)NC(=O)[C@@H]2CCCN2)CSSC[C@@H](C(=O)N[C@H](C(=O)N2CCC[C@@H]2C(N)=O)[C@@H](C)O)NC(=O)[C@H](Cc2c[nH]c3ccccc23)NC(=O)[C@H](C(C)C)NC(=O)[C@H](CC(C)C)NC(=O)[C@H](CCC(=O)O)NC(=O)CNC1=O | – | 2.2 |
| CC(=O)N[C@@H](CC(=O)O)C(=O)N[C@H]1CSSC[C@@H](C(=O)N[C@H](C(=O)N[C@@H](Cc2ccccc2)C(=O)N[C@@H](Cc2cnc[nH]2)C(N)=O)[C@@H](C)O)NC(=O)[C@H](Cc2c[nH]c3ccccc23)NC(=O)[C@H](C(C)C)NC(=O)[C@H](CC(C)C)NC(=O)[C@H](CCC(=O)O)NC(=O)CNC(=O)[C@H](CC(C)C)NC(=O)[C@H](Cc2cnc[nH]2)NC(=O)[C@H](Cc2ccc(O)cc2)NC(=O)[C@H](C)NC1=O (Ac-DCAYHLGELVWCTFH-NH2; disulfide 2-12) | 1.47e+06 | – |
